Data published in patent US20210253568A1, “AZAINDOLE DERIVATIVES AS RHO-KINASE INHIBITORS” (CHIESI FARMACEUTICI S.p.A., priority 2018, published 2021).
pKi: −log10 of the molar value.

What was measured:
ROCK 2 = ROCK 2 (Homo sapiens, UniProt O75116); assay: In vitro Rho kinase inhibitory activity assay (ADP-Glo), Rho kinase 2; assay type: biochemical; details: Ki by Cheng-Prusoff from IC50; 10 μM ATP, 25° C., expressed as range of activity
Procedure: (§1) The effectiveness of compounds of the present invention to inhibit Rho kinase activity can be determined in a 10 μl assay containing 40 mM Tris pH7.5, 20 mM MgCl2 0.1 mg/mi BSA, 50 μM DTT and 2.5 μM peptide substrate (Myelin Basic Protein) using an ADP-Glo kit (Promega). Compounds were dissolved in DMSO such that the final concentration of DMSO was 1% in the assay. All reactions/incubations are performed at 25° C. Compound (2 ul) and either Rho kinase 1 or 2 (4 μl) were mixed and incubated for 30 mins. Reactions were initiated by addition of ATP (4 μl) such that the final concentration of ATP in the assay was 10 μM. After a 1 hour incubation 10 μl of ADP-Glo Reagent was added and after a further 45 minute incubation 20 ul of Kinase Detection Buffer was added and the mixture incubated for a further 30 minutes. The luminescent signal was measured on a luminometer. […] Compounds were tested in dose-response format and the inhibition of kinase activity was calculated at each concentration of compound. To determine the IC50 (concentration of compound required to inhibit 50% of the enzyme activity) data were fit to a plot of % inhibition vs Log10 compound concentration using a sigmoidal fit with a variable slope and fixing the maximum to 100% and the minimum to 0%. To determine the Ki values the Cheng-Prusoff equation was utilized (Ki=IC50/(1+[S]/Km).

ROCK 1 = ROCK 1 (Homo sapiens, UniProt Q13464); assay: In vitro Rho kinase inhibitory activity assay (ADP-Glo), Rho kinase 1; assay type: biochemical; details: Ki by Cheng-Prusoff from IC50; 10 μM ATP, 25° C., expressed as range of activity
Procedure: as §1

Sequence of ROCK 1 (Q13464 whole entry): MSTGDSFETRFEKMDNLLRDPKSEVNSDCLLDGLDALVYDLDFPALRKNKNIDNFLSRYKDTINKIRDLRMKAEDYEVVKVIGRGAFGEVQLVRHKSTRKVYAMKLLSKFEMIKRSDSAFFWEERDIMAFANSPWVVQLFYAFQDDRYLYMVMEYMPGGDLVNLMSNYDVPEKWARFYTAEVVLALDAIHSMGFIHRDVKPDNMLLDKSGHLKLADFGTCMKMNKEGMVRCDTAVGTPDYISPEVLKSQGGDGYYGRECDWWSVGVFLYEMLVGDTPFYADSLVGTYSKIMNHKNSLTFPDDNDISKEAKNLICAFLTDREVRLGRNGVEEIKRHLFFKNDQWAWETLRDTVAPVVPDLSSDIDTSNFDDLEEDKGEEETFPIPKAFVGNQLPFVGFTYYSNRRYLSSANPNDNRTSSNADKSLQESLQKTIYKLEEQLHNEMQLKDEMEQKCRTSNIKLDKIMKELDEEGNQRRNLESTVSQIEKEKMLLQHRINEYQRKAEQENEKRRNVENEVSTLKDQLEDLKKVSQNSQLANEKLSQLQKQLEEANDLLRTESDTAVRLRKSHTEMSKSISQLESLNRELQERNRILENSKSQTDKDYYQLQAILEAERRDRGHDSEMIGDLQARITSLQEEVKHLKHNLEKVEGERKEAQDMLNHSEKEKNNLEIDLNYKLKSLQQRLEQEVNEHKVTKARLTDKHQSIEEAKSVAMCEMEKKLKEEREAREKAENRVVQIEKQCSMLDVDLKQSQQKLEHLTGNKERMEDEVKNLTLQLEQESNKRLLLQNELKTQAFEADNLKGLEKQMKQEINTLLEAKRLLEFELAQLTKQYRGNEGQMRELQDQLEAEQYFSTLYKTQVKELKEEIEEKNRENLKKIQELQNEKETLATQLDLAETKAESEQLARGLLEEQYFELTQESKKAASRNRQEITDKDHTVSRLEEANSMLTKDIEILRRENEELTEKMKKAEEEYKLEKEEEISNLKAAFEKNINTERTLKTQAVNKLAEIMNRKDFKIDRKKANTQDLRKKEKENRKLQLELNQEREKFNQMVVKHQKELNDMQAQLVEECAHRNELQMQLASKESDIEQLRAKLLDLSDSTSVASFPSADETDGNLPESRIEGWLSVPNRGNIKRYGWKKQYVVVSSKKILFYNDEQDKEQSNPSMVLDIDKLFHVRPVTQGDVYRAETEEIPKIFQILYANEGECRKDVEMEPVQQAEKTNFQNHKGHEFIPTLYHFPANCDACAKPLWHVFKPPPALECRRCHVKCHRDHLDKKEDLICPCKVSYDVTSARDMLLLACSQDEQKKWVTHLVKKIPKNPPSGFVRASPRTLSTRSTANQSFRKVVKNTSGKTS
Sequence of ROCK 2 (O75116 whole entry): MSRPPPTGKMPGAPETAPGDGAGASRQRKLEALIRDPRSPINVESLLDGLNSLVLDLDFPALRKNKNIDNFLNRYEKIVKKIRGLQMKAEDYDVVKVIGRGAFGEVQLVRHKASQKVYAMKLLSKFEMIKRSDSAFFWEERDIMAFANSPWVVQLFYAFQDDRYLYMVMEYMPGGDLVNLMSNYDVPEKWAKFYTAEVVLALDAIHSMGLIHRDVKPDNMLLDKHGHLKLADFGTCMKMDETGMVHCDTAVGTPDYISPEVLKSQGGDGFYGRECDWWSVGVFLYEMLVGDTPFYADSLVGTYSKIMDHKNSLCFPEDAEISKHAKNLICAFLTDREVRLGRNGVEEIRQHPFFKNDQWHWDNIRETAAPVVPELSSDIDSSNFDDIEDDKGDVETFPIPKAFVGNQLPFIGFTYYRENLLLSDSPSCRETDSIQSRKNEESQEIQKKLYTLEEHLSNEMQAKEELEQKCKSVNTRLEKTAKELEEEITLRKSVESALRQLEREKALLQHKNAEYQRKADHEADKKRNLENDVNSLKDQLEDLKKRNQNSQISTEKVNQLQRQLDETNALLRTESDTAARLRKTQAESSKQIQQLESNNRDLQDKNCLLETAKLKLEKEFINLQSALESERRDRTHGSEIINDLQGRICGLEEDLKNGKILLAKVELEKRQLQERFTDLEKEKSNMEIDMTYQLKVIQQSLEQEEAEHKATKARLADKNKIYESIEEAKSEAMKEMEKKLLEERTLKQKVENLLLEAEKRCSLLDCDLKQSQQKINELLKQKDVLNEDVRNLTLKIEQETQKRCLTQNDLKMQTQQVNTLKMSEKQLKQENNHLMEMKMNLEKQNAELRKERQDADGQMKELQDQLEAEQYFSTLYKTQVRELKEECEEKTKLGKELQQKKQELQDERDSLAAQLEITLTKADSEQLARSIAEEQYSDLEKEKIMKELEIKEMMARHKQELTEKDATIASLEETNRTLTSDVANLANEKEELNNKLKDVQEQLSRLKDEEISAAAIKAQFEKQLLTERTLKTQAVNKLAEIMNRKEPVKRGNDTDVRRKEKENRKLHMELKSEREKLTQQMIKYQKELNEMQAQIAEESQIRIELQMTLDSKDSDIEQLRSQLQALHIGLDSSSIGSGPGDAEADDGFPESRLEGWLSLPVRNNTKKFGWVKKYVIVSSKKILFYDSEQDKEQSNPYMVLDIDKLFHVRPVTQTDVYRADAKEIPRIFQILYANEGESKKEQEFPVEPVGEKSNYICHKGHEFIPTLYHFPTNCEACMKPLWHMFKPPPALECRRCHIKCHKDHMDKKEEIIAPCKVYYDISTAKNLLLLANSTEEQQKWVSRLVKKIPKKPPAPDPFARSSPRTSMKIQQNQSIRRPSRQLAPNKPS

Work on `CC(C)OCC(=O)Nc1cc(-c2c[nH]c3nccc(Oc4ccc5c(c4)CNCC5)c23)ccn1` [Example 42, 2-isopropoxy-N-(4-(4-((1,2,3,4-tetrahydroisoquinolin-7-yl)oxy)-1H-pyrrolo[2,3-b]pyridin-3-yl)pyridin-2-yl)acetamide] yielded a pKi (ROCK 2) greater than 8.52 and a pKi (ROCK 1) greater than 8.52.
`O=C(CN1CCCCC1)Nc1cc(-c2c[nH]c3nccc(Oc4ccc5c(c4)CNCC5)c23)ccn1` [Example 43, 2-(piperidin-1-yl)-N-(4-(4-((1,2,3,4-tetrahydroisoquinolin-7-yl)oxy)-1H-pyrrolo[2,3-b]pyridin-3-yl)pyridin-2-yl)acetamide] gave a pKi (ROCK 2) greater than 8.52 and a pKi (ROCK 1) greater than 8.52.
For `CC1(C(=O)Nc2cc(-c3c[nH]c4nccc(Oc5ccc6c(c5)CNCC6)c34)ccn2)CC1` [Example 44, 1-methyl-N-(4-(4-((1,2,3,4-tetrahydroisoquinolin-7-yl)oxy)-1H-pyrrolo[2,3-b]pyridin-3-yl)pyridin-2-yl)cyclopropanecarboxamide], the pKi (ROCK 2) was greater than 8.52 and the pKi (ROCK 1) was 7.52 to 8.52.
`NC(C(=O)Nc1cc(-c2c[nH]c3nccc(Oc4ccc5c(c4)CNCC5)c23)ccn1)c1ccccc1` (stereo not drawn) [Example 45, 2-amino-2-phenyl-N-(4-(4-((1,2,3,4-tetrahydroisoquinolin-7-yl)oxy)-1H-pyrrolo[2,3-b]pyridin-3-yl)pyridin-2-yl)acetamide] gave a pKi (ROCK 2) greater than 8.52 and a pKi (ROCK 1) greater than 8.52.
In the case of `CC1(C)CCN(C(=O)Nc2cc(-c3c[nH]c4nccc(Oc5ccc6c(c5)CNCC6)c34)ccn2)CC1` [Example 46, 4,4-dimethyl-N-(4-(4-((1,2,3,4-tetrahydroisoquinolin-7-yl)oxy)-1H-pyrrolo[2,3-b]pyridin-3-yl)pyridin-2-yl)piperidine-1-carboxamide], the pKi (ROCK 2) was greater than 8.52 and the pKi (ROCK 1) was 7.52 to 8.52.
Work on `CN(C(=O)Nc1cc(-c2c[nH]c3nccc(Oc4ccc5c(c4)CNCC5)c23)ccn1)C1CCCCC1` [Example 47, 1-cyclohexyl-1-methyl-3-(4-(4-((1,2,3,4-tetrahydroisoquinolin-7-yl)oxy)-1H-pyrrolo[2,3-b]pyridin-3-yl)pyridin-2-yl)urea] yielded a pKi (ROCK 2) greater than 8.52 and a pKi (ROCK 1) greater than 8.52.
In the case of `CN(C(=O)Nc1cc(-c2c[nH]c3nccc(Oc4ccc5c(c4)CNCC5)c23)ccn1)C1CCOCC1` [Example 48, 1-methyl-1-(tetrahydro-2H-pyran-4-yl)-3-(4-(4-((1,2,3,4-tetrahydroisoquinolin-7-yl)oxy)-1H-pyrrolo[2,3-b]pyridin-3-yl)pyridin-2-yl)urea], the pKi (ROCK 2) was greater than 8.52 and the pKi (ROCK 1) was 7.52 to 8.52.
For `c1ccc(CNc2cc(-c3c[nH]c4nccc(Oc5cnc6c(c5)CNCC6)c34)ccn2)cc1` [Example 49, N-benzyl-4-(4-((5,6,7,8-tetrahydro-1,6-naphthyridin-3-yl)oxy)-1H-pyrrolo[2,3-b]pyridin-3-yl)pyridin-2-amine], the pKi (ROCK 2) was less than 7.52 and the pKi (ROCK 1) was less than 7.52.
For `O=C(Nc1cc(-c2c[nH]c3nccc(Oc4ccc5c(c4)CNCC5)c23)ncn1)c1ccccc1` [Example 50, N-(6-(4-((1,2,3,4-tetrahydroisoquinolin-7-yl)oxy)-1H-pyrrolo[2,3-b]pyridin-3-yl)pyrimidin-4-yl)benzamide], the pKi (ROCK 2) was greater than 8.52 and the pKi (ROCK 1) was 7.52 to 8.52.
`c1ccc(CNc2cncc(-c3c[nH]c4nccc(Oc5ccc6c(c5)CNCC6)c34)c2)cc1` [Example 51, N-benzyl-5-(4-((1,2,3,4-tetrahydroisoquinolin-7-yl)oxy)-1H-pyrrolo[2,3-b]pyridin-3-yl)pyridin-3-amine] showed a pKi (ROCK 2) greater than 8.52 and a pKi (ROCK 1) of 7.52 to 8.52.
`C[C@@H](Nc1cc(-c2c[nH]c3nccc(Oc4ccc5c(c4)CNCC5)c23)ncn1)c1ccccc1` [Example 52, (R)-N-(1-phenylethyl)-6-(4-((1,2,3,4-tetrahydroisoquinolin-7-yl)oxy)-1H-pyrrolo[2,3-b]pyridin-3-yl)pyrimidin-4-amine] gave a pKi (ROCK 2) greater than 8.52 and a pKi (ROCK 1) greater than 8.52.
In the case of `c1ccc(CCNc2cc(-c3c[nH]c4nccc(Oc5ccc6c(c5)CNCC6)c34)ncn2)cc1` [Example 53, N-phenethyl-6-(4-((1,2,3,4-tetrahydroisoquinolin-7-yl)oxy)-1H-pyrrolo[2,3-b]pyridin-3-yl)pyrimidin-4-amine], the pKi (ROCK 2) was greater than 8.52 and the pKi (ROCK 1) was greater than 8.52.
In the case of `C[C@H](Nc1cc(-c2c[nH]c3nccc(Oc4ccc5c(c4)CNCC5)c23)ncn1)c1ccccc1` [Example 54, (S)-N-(1-phenylethyl)-6-(4-((1,2,3,4-tetrahydroisoquinolin-7-yl)oxy)-1H-pyrrolo[2,3-b]pyridin-3-yl)pyrimidin-4-amine], the pKi (ROCK 2) was greater than 8.52 and the pKi (ROCK 1) was 7.52 to 8.52.
Compound `c1cncc(CCNc2cc(-c3c[nH]c4nccc(Oc5ccc6c(c5)CNCC6)c34)ncn2)c1` [Example 55, N-(2-(pyridin-3-yl)ethyl)-6-(4-((1,2,3,4-tetrahydroisoquinolin-7-yl)oxy)-1H-pyrrolo[2,3-b]pyridin-3-yl)pyrimidin-4-amine] has a pKi (ROCK 2) greater than 8.52 and a pKi (ROCK 1) greater than 8.52.
`c1ccc(CNc2cc(-c3c[nH]c4ncnc(Oc5ccc6c(c5)CNCC6)c34)ccn2)cc1` [Example 56, N-benzyl-4-(4-((1,2,3,4-tetrahydroisoquinolin-7-yl)oxy)-7H-pyrrolo[2,3-d]pyrimidin-5-yl)pyridin-2-amine] gave a pKi (ROCK 2) greater than 8.52 and a pKi (ROCK 1) of 7.52 to 8.52.
